Laboratory results from patent US20240247080A1, “GLP1/GIP/NPY2 RECEPTOR TRIPLE AGONISTS” (Boehringer Ingelheim International GmbH, priority 2022, published 2024).
Read-outs that look alike come from different tables or passages of the source.

Tests used:
[1] = molecular target: T1, hGLP1R (Homo sapiens, UniProt P43220); experiment: hGLP1R CreLuc reporter gene assay in 0.5% and 100% plasma; type: cell-based; conditions: CreLuc reporter gene assay
T1 construct: expressed in transfected cells; host or cells: HEK-293 cells carrying a CRE-luciferase reporter gene
T1 sequence (P43220 24-463): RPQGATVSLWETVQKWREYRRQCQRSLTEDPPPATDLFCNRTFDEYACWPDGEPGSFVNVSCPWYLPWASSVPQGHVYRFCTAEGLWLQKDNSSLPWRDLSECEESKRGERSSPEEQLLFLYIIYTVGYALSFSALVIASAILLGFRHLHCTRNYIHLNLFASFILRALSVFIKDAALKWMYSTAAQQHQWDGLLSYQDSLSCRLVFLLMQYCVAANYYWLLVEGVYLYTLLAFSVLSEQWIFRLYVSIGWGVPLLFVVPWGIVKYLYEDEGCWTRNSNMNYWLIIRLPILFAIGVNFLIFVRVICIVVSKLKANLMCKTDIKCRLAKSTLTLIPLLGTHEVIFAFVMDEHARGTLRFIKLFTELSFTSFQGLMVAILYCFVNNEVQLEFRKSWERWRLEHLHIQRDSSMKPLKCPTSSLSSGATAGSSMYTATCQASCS
Summary of the method: (§1)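 HEK-293 cells co-expressing GLP-1 or NPY2 receptor and CHO cells expressing GIP receptor, each carrying a CRE-driven luciferase reporter, were stimulated with peptides for 4 hours at 37 °C. Luminescence was read after Bright-Glo addition. EC50 came from 8-point, four-decade curves fitted by variable-slope non-linear regression.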

[2] = molecular target: T2, hGIPR (Homo sapiens, UniProt P48546); experiment: hGIPR CreLuc reporter gene assay in 0.5% and 100% plasma; type: cell-based; conditions: CreLuc reporter gene assay
T2 construct: expressed in transfected cells; host or cells: CHO cells carrying a CRE-luciferase reporter gene
T2 sequence (P48546 22-466): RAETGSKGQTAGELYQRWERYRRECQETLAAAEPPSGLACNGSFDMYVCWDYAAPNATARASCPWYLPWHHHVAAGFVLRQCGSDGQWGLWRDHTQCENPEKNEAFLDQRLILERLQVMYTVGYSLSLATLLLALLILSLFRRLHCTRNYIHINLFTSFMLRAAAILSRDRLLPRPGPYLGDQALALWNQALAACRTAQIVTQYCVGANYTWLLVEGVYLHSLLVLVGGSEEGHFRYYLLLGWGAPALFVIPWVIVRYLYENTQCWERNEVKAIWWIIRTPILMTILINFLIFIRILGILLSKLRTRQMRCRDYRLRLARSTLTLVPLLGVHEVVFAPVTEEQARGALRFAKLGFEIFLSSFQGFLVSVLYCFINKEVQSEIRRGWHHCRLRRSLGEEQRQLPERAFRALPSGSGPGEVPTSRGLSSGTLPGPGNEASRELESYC
Summary of the method: as §1

[3] = molecular target: T3, hNPY2R (Homo sapiens, UniProt P49146); experiment: hNPY2R CreLuc reporter gene assay in 0.5% and 100% plasma; type: cell-based; conditions: CreLuc reporter gene assay, 0.5% human plasma; read-out: hNPY2R 0.5% hP
T3 construct: expressed in transfected cells; host or cells: HEK-293 cells carrying a CRE-luciferase reporter gene
T3 sequence (P49146 1-381): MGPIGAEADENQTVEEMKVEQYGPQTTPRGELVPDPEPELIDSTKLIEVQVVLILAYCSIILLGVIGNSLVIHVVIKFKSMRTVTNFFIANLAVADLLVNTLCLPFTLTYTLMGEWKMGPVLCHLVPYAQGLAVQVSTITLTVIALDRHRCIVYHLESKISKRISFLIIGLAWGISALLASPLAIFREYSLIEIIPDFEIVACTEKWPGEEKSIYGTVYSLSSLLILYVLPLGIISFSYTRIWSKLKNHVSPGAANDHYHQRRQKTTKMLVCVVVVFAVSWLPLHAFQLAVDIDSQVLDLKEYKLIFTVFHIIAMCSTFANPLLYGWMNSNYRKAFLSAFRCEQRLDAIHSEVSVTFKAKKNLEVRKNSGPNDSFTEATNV
Summary of the method: as §1

[4] = Mouse PK after intravenous application; type: in vivo; conditions: plasma, mean residence time, intravenous 30-60 nmol/kg, male NMRI mice
Description: Pharmacokinetic parameters of the peptides were determined after intravenous application to NMRI mice. Male NMRI mice were obtained from Janvier Laboratories (France) weighing 30 to 40 g. Mice were housed in standard cages with a 12:12 hour light:dark cycle and standard food and water access ad libitum. Each test peptide was dissolved in 50 mM phosphate buffer (pH 7.4)/3.5% mannitol. Intravenous application of 30-60 nmol/kg was performed via the tail vein. Serial blood samples from conscious mice were collected from the saphenous vein in EDTA-containing vials at different time points up to 56 hours post-dosing. Subsequently, plasma was prepared by centrifugation for 5 min at approximately 5000 rpm and stored at −20° C. until quantification of the peptide plasma levels by liquid chromatography mass spectrometry (LC-MS). Individual plasma concentration—time profiles were analysed by a non-compartmental approach and the resulting pharmacokinetic parameters were calculated.

[5] = 0.5% human plasma, read-out: hGLP1R 0.5% hP
[6] = 0.5% human plasma, read-out: hGIPR 0.5% hP
[7] = 100% human plasma, read-out: hGIPR 100% hP
[8] = 100% human plasma, read-out: hGLP1R 100% hP

Row | EC50 [1, 5] [nM] | EC50 [2, 6] [nM] | EC50 [2, 7] [nM] | EC50 [3] [nM] | MRT [4] [h] | EC50 [1, 8] [nM] | SMILES
1 | 0.15 | 0.22 | 1.11 | 10.3 | 12.6 |  | CC[C@H](C)[C@H](NC(=O)[C@H](CC(C)C)NC(=O)[C@H](Cc1c[nH]c2ccccc12)NC(=O)[C@H](CCC(=O)O)NC(=O)[C@@H](NC(=O)[C@H](Cc1ccccc1)NC(=O)[C@H](C)NC(=O)C(C)(C)NC(=O)[C@H](CCC(N)=O)NC(=O)[C@H](C)NC(=O)[C@H](CCC(N)=O)NC(=O)[C@H](CCCCN)NC(=O)[C@H](CCC(=O)O)NC(=O)[C@H](CC(C)C)NC(=O)C(C)(C)NC(=O)[C@@H](NC(=O)[C@H](CO)NC(=O)[C@H](Cc1ccc(O)cc1)NC(=O)[C@H](CC(=O)O)NC(=O)[C@H](CO)NC(=O)[C@@H](NC(=O)[C@H](Cc1ccccc1)NC(=O)[C@@H](NC(=O)CNC(=O)[C@H](CCC(=O)O)NC(=O)C(C)(C)NC(=O)[C@@H](N)Cc1ccc(O)cc1)[C@@H](C)O)[C@@H](C)O)[C@@H](C)CC)C(C)C)C(=O)N[C@@H](CCCCNC(=O)[C@@H](N)CCCCNC(=O)CC[C@H](NC(=O)CC[C@H](NC(=O)CC[C@H](NC(=O)CC[C@H](NC(=O)CC[C@H](NC(=O)CC[C@H](NC(=O)CCCCCCCCCCCCCCCCCCC(=O)O)C(=O)O)C(=O)O)C(=O)O)C(=O)O)C(=O)O)C(=O)O)C(=O)NCC(=O)NCC(=O)N1CCC[C@H]1C(=O)N[C@@H](CO)C(=O)N[C@@H](CO)C(=O)NCC(=O)N[C@@H](C)C(=O)N[C@@H](CO)C(=O)N[C@@H](CC(C)C)C(=O)N[C@@H](CCCNC(=N)N)C(=O)N[C@@H](Cc1c[nH]cn1)C(=O)N[C@@H](Cc1ccc(O)cc1)C(=O)N[C@@H](Cc1ccc(O)cc1)C(=O)N[C@@H](CC(N)=O)C(=O)N[C@@H](Cc1c[nH]c2ccccc12)C(=O)N[C@@H](CC(C)C)C(=O)N[C@H](C(=O)N[C@@H](CCCNC(=N)N)C(=O)N(C)[C@@H](CCC(N)=O)C(=O)N[C@@H](CCCNC(=N)N)C(=O)N[C@@H](Cc1ccc(O)cc1)C(N)=O)[C@@H](C)O [Compound 85, Y-Aib-E-G-T-F-T-S-D-Y-S-I-Aib-L-E-K-Q-A-Q-Aib-A-F-V-E-W-L-I-K(1,3)-G-G-P-S-S-G-A-S-L-R-H-Y-Y-N-W-L-T-R-NMeQ-R-Y-NH2.C20DA-gGlu-gGlu-gGlu-gGlu-gGlu-gGlu-eLys(1,2)]
2 | 0.17 | 0.13 | 1.06 | 28.8 | 10.3 | 2.87 | CC[C@H](C)[C@H](NC(=O)[C@H](CC(C)C)NC(=O)[C@H](Cc1c[nH]c2ccccc12)NC(=O)[C@H](CCC(=O)O)NC(=O)[C@@H](NC(=O)[C@H](Cc1ccccc1)NC(=O)[C@H](C)NC(=O)C(C)(C)NC(=O)[C@H](CCC(N)=O)NC(=O)[C@H](C)NC(=O)[C@H](CCC(N)=O)NC(=O)[C@H](CCCCN)NC(=O)[C@H](CCC(=O)O)NC(=O)[C@H](CC(C)C)NC(=O)C(C)(C)NC(=O)[C@@H](NC(=O)[C@H](CO)NC(=O)[C@H](Cc1ccc(O)cc1)NC(=O)[C@H](CC(=O)O)NC(=O)[C@H](CO)NC(=O)[C@@H](NC(=O)[C@H](Cc1ccccc1)NC(=O)[C@@H](NC(=O)CNC(=O)[C@H](CCC(=O)O)NC(=O)C(C)(C)NC(=O)[C@@H](N)Cc1ccc(O)cc1)[C@@H](C)O)[C@@H](C)O)[C@@H](C)CC)C(C)C)C(=O)N[C@@H](CCCCNC(=O)[C@@H](N)CCCCNC(=O)CC[C@H](NC(=O)CC[C@H](NC(=O)CC[C@H](NC(=O)CC[C@H](NC(=O)CC[C@H](NC(=O)CC[C@H](NC(=O)CCCCCCCCCCCCCCCCCCC(=O)O)C(=O)O)C(=O)O)C(=O)O)C(=O)O)C(=O)O)C(=O)O)C(=O)NCC(=O)NCC(=O)N1CCC[C@H]1C(=O)N[C@@H](CO)C(=O)N[C@@H](CO)C(=O)NCC(=O)N[C@@H](C)C(=O)N[C@@H](CO)C(=O)N[C@@H](CC(C)C)C(=O)N[C@@H](CCCNC(=N)N)C(=O)N[C@@H](Cc1c[nH]cn1)C(=O)N[C@@H](Cc1ccc(O)cc1)C(=O)N[C@@H](Cc1ccc(O)cc1)C(=O)N[C@@H](CC(N)=O)C(=O)N[C@@H](Cc1c[nH]c2ccccc12)C(=O)N[C@@H](CC(C)C)C(=O)N[C@H](C(=O)N[C@@H](CCCNC(=N)N)C(=O)N[C@@H](CCC(N)=O)C(=O)N(C)[C@@H](CCCNC(=N)N)C(=O)N[C@@H](Cc1ccc(O)cc1)C(N)=O)[C@@H](C)O [Compound 83, Y-Aib-E-G-T-F-T-S-D-Y-S-I-Aib-L-E-K-Q-A-Q-Aib-A-F-V-E-W-L-I-K(1,3)-G-G-P-S-S-G-A-S-L-R-H-Y-Y-N-W-L-T-R-Q-NMeR-Y-NH2.C20DA-gGlu-gGlu-gGlu-gGlu-gGlu-gGlu-eLys(1,2)]
3 | 0.19 | 0.23 | 1.81 | > 99.9 | 10.1 | 2.65 | CC[C@H](C)[C@H](NC(=O)[C@H](CC(C)C)NC(=O)[C@H](Cc1c[nH]c2ccccc12)NC(=O)[C@H](CCC(=O)O)NC(=O)[C@@H](NC(=O)[C@H](Cc1ccccc1)NC(=O)[C@H](C)NC(=O)C(C)(C)NC(=O)[C@H](CCC(N)=O)NC(=O)[C@H](C)NC(=O)[C@H](CCC(N)=O)NC(=O)[C@H](CCCCN)NC(=O)[C@H](CCC(=O)O)NC(=O)[C@H](CC(C)C)NC(=O)C(C)(C)NC(=O)[C@@H](NC(=O)[C@H](CO)NC(=O)[C@H](Cc1ccc(O)cc1)NC(=O)[C@H](CC(=O)O)NC(=O)[C@H](CO)NC(=O)[C@@H](NC(=O)[C@H](Cc1ccccc1)NC(=O)[C@@H](NC(=O)CNC(=O)[C@H](CCC(=O)O)NC(=O)C(C)(C)NC(=O)[C@@H](N)Cc1ccc(O)cc1)[C@@H](C)O)[C@@H](C)O)[C@@H](C)CC)C(C)C)C(=O)N[C@@H](CCCCNC(=O)[C@@H](N)CCCCNC(=O)CC[C@H](NC(=O)CC[C@H](NC(=O)CC[C@H](NC(=O)CC[C@H](NC(=O)CC[C@H](NC(=O)CC[C@H](NC(=O)CCCCCCCCCCCCCCCCCCC(=O)O)C(=O)O)C(=O)O)C(=O)O)C(=O)O)C(=O)O)C(=O)O)C(=O)NCC(=O)NCC(=O)N1CCC[C@H]1C(=O)N[C@@H](CO)C(=O)N[C@@H](CO)C(=O)NCC(=O)N[C@@H](C)C(=O)N[C@@H](CO)C(=O)N[C@@H](CC(C)C)C(=O)N[C@@H](CCCNC(=N)N)C(=O)N[C@@H](Cc1c[nH]cn1)C(=O)N[C@@H](Cc1ccc(O)cc1)C(=O)N[C@@H](Cc1ccc(O)cc1)C(=O)N[C@@H](CC(N)=O)C(=O)N[C@@H](Cc1c[nH]c2ccccc12)C(=O)N[C@@H](CC(C)C)C(=O)N[C@H](C(=O)N[C@@H](CCCNC(=N)N)C(=O)N[C@@H](CCC(N)=O)C(=O)N[C@@H](CCCNC(=N)N)C(=O)N[C@H](Cc1ccc(O)cc1)C(N)=O)[C@@H](C)O [Compound 214, Y-Aib-E-G-T-F-T-S-D-Y-S-I-Aib-L-E-K-Q-A-Q-Aib-A-F-V-E-W-L-I-K(1,3)-GGPSSGASLRHYYNWLTRQR-DTyr-NH2.C20DA-gGlu-gGlu-gGlu-gGlu-gGlu-gGlu-eLys(1,2)]
